Experimental data: patent US9902696B2, “1,4-substituted piperidine derivatives” (Cephalon, Inc., priority 2015, dated 2018)

The compounds below were run against T1, recombinant human baculovirus-expressed GST-tagged FASN (Homo sapiens, UniProt P49327) (assay: FASN enzyme activity assay, fluorescence-based detection of CoA with CPM). Details: 5 nM FASN, 150 μM NADPH, 10 μM acetyl-CoA, 25 μM malonyl-CoA, 90 minutes incubation; read-out: IC50 data for Compounds of Formulae I-V/V(a): Activity.
T1 construct: GST
T1 sequence (P49327 whole entry): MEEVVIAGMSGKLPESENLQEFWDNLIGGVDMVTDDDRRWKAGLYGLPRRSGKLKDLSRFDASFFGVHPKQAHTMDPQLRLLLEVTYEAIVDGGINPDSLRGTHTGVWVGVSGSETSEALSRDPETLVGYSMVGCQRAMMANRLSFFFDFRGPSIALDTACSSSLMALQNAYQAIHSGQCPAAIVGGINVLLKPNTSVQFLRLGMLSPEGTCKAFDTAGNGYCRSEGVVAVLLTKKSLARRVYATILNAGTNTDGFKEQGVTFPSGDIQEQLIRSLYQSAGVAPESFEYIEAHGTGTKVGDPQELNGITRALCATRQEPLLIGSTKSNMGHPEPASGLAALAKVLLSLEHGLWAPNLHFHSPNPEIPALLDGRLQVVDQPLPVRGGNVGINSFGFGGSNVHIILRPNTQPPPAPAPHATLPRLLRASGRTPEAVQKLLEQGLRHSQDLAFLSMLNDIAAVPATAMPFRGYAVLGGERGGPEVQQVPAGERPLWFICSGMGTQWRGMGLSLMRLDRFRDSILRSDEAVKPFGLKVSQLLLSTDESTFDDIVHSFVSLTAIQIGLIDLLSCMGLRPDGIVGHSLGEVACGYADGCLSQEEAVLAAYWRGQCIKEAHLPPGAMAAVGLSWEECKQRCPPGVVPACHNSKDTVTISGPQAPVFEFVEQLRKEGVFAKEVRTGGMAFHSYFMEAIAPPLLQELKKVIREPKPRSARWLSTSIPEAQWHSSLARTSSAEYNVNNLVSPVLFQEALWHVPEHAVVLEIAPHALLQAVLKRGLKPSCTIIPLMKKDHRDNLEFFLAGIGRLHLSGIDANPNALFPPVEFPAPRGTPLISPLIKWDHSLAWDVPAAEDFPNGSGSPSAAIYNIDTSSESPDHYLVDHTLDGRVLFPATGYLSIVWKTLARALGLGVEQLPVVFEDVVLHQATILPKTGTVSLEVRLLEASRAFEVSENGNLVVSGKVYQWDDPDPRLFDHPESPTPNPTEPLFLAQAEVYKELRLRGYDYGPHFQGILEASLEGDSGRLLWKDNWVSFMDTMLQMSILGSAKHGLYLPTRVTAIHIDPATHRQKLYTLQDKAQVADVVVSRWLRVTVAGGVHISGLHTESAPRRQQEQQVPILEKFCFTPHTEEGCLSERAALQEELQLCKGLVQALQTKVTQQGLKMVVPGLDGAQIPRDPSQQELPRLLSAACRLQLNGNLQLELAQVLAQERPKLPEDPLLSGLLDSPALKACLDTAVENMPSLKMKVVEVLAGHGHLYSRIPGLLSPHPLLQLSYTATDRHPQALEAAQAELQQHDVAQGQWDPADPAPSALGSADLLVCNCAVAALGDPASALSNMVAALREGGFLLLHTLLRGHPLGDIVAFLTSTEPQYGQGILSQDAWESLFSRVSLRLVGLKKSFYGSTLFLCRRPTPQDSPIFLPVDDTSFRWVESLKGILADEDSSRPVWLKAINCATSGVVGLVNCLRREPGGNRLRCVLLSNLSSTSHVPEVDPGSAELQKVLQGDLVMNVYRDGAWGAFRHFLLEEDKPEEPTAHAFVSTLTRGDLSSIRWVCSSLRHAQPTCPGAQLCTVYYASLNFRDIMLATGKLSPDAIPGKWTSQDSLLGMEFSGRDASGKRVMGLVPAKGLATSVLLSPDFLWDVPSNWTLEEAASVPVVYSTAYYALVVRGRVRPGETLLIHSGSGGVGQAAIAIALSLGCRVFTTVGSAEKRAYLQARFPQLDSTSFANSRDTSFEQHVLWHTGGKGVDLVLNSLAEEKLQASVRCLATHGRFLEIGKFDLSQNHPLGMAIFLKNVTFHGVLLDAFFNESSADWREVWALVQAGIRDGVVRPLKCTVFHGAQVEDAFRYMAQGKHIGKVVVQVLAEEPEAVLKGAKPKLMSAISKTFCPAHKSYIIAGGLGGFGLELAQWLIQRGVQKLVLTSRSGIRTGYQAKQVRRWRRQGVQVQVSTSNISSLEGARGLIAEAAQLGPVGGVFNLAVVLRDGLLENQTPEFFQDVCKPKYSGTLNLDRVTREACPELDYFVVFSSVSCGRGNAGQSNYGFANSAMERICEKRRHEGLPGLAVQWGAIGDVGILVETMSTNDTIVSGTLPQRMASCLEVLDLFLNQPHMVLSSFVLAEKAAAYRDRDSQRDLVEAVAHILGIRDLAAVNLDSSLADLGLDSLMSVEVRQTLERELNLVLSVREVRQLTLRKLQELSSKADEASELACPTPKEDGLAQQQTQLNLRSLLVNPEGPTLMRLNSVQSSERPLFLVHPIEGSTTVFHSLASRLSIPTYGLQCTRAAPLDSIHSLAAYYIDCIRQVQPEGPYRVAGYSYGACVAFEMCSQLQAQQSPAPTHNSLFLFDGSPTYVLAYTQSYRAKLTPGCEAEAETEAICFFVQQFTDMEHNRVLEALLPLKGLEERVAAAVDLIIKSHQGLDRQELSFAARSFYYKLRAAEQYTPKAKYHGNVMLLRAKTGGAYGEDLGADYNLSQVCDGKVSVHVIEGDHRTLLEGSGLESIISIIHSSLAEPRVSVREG
Assay type: biochemical
Method in brief: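 Human GST-tagged FASN, baculovirus-expressed (5 nM), in 50 mM HEPES pH 7.5 with 150 μM NADPH, 10 μM acetyl-CoA, 25 μM malonyl-CoA, 0.5% DMSO; malonyl-CoA-started, 90 min. Released CoA detected with CPM (50 μM dilution), 30 min, fluorescence ex 390/em 530. IC50 from variable-slope sigmoidal fit of % inhibition versus log concentration.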

Row | Structure (SMILES) | IC50
1 | Cc1nc2ccc(-c3ccc(OC4CCN(C(=O)C5CC5)CC4)cc3)cn2c1C [Example 291, Cyclopropyl-{4-[4-(2,3-dimethylimidazo[1,2-a]pyridin-6-yl)-phenoxy]-piperidin-1-yl}-methanone] | 1000 to 10000 nM
2 | CCC(=O)N1CCC(Oc2ccc(-c3cn4ccnc4cc3C)cc2)CC1 [Example 293, 1-{4-[4-(7-Methylimidazo[1,2-a]pyridin-6-yl)-phenoxy]-piperidin-1-yl}-propan-1-one] | 1000 to 10000 nM
3 | CCC(=O)N1CCC(Oc2ccc(-c3ccc4cncn4c3)cc2)CC1 [Example 299, 1-[4-(4-Imidazo[1,5-a]pyridin-6-yl-phenoxy)-piperidin-1-yl]-propan-1-one] | 1000 to 10000 nM
4 | O=C(C1CC1)N1CCC(Oc2ccc(-c3ccc4cncn4c3)cc2)CC1 [Example 300, Cyclopropyl-[4-(4-imidazo[1,5-a]pyridin-6-yl-phenoxy)-piperidin-1-yl]-methanone] | 1000 to 10000 nM
5 | NC(=O)C1(C(=O)N2CCC(Oc3ccc(-c4ccc5cncn5c4)cc3)CC2)CC1 [Example 301, 1-[4-(4-Imidazo[1,5-a]pyridin-6-yl-phenoxy)-piperidine-1-carbonyl]-cyclopropanecarboxylic acid amide] | 1000 to 10000 nM
6 | O=C(N1CCC(Oc2ccc(-c3ccc4cncn4c3)cc2)CC1)C1(O)CC1 [Example 302, (1-Hydroxycyclopropyl)-[4-(4-imidazo[1,5-a]pyridin-6-yl-phenoxy)-piperidin-1-yl]-methanone] | 1 to 99 nM
7 | COc1c(-c2ccc(OC3CCN(C(=O)C4(O)CC4)CC3)cc2)ccc2cccnc12 [Example 303, (1-Hydroxycyclopropyl)-{4-[4-(8-methoxy-quinolin-7-yl)-phenoxy]-piperidin-1-yl}-methanone] | 1 to 99 nM
8 | O=C(N1CCC(Oc2ccc(-c3ccn4cnnc4c3)cc2)CC1)C1(O)CC1 [Example 306, (1-Hydroxycyclopropyl)-[4-(4-[1,2,4]triazolo[4,3-a]pyridin-7-yl-phenoxy)-piperidin-1-yl]-methanone] | 1000 to 10000 nM
9 | O=C(C1CC1)N1CCC(Oc2ccc(-c3ccn4cnnc4c3)cc2)CC1 [Example 308, Cyclopropyl-[4-(4-[1,2,4]triazolo[4,3-a]pyridin-7-yl-phenoxy)-piperidin-1-yl]-methanone] | 1000 to 10000 nM
10 | Cc1c(-c2ccc(OC3CCN(C(=O)C4(O)CC4)CC3)cc2)ccc2ncnn12 [Example 312, (1-Hydroxycyclopropyl)-{4-[4-(5-methyl-[1,2,4]triazolo[1,5-a]pyridin-6-yl)-phenoxy]-piperidin-1-yl}-methanone] | 100 to 999 nM
11 | CCC(=O)N1CCC(Oc2ccc(-c3ccc4ncnn4c3C)cc2)CC1 [Example 313, 1-{4-[4-(5-Methyl-[1,2,4]triazolo[1,5-a]pyridin-6-yl)-phenoxy]-piperidin-1-yl}-propan-1-one] | 1000 to 10000 nM
12 | Cc1c(-c2ccc(OC3CCN(C(=O)C4CC4)CC3)cc2)ccc2ncnn12 [Example 314, Cyclopropyl-{4-[4-(5-methyl-[1,2,4]triazolo[1,5-a]pyridin-6-yl)-phenoxy]-piperidin-1-yl}-methanone] | 1000 to 10000 nM
13 | Cc1c(-c2ccc(OC3CCN(C(=O)C4(C(F)(F)F)CC4)CC3)cc2)ccc2cccnc12 [Example 315, {4-[4-(8-Methylquinolin-7-yl)-phenoxy]-piperidin-1-yl}-(1-trifluoro-methylcyclopropyl)-methanone] | 1000 to 10000 nM
14 | Cc1c(-c2ccc(OC3CCN(C(=O)C4(N)CC4)CC3)cc2)ccc2cccnc12 [Example 316, (1-Aminocyclopropyl)-{4-[4-(8-methyl-quinolin-7-yl)-phenoxy]-piperidin-1-yl}-methanone] | 1 to 99 nM
15 | Cc1c(-c2ccc(OC3CCN(C(=O)C4(C#N)CC4)CC3)cc2)ccc2cccnc12 [Example 319, 1-{4-[4-(8-Methylquinolin-7-yl)-phenoxy]-piperidine-1-carbonyl}-cyclopropanecarbonitrile] | 1000 to 10000 nM
16 | Cc1c(-c2ccc(OC3CCN(C(=O)C4(C)CC4)CC3)cc2)ccc2cccnc12 [Example 320, (1-Methylcyclopropyl)-{4-[4-(8-methyl-quinolin-7-yl)-phenoxy]-piperidin-1-yl}-methanone] | 1 to 99 nM
17 | Cc1c(-c2ccc(OC3CCN(C(=O)[C@H]4CC4(C)C)CC3)cc2)ccc2cccnc12 [Example 321, ((S)-2,2-Dimethylcyclopropyl)-{4-[4-(8-methyl-quinolin-7-yl)-phenoxy]-piperidin-1-yl}-methanone] | 100 to 999 nM
18 | Cc1c(-c2ccc(OC3CCN(C(=O)C4CC4(C)C)CC3)cc2)ccc2cccnc12 (stereo not drawn) [Example 322, (2,2-Dimethylcyclopropyl)-{4-[4-(8-methyl-quinolin-7-yl)-phenoxy]-piperidin-1-yl}-methanone] | 1 to 99 nM
19 | CN1CCN(c2c(-c3ccc(OC4CCN(C(=O)[C@H]5CCCO5)CC4)cc3)ccc3cccnc23)CC1 [Example 323, [4-[4-[8-(4-Methylpiperazin-1-yl)-7-quinolyl]phenoxy]-1-piperidyl]-[(2R)-tetrahydrofuran-2-yl]methanone] | 1000 to 10000 nM
20 | CCC(=O)N1CCC(Oc2ccc(-c3ccc4cccnc4c3NC)cc2)CC1 [Example 326, 1-{4-[4-(8-Methylaminoquinolin-7-yl)-phenoxy]-piperidin-1-yl}-propan-1-one] | 100 to 999 nM

Other lines, results leading:

Row | IC50 | Structure (SMILES)
21 | 100 to 999 nM | Cc1cc2nccn2cc1-c1ccc(OC2CCN(C(=O)[C@H]3CCCO3)CC2)cc1 [Example 292, {4-[4-(7-Methylimidazo[1,2-a]pyridin-6-yl)-phenoxy]-piperidin-1-yl}-(R)-tetrahydrofuran-2-yl-methanone]
22 | 1000 to 10000 nM | O=C([C@H]1CCCO1)N1CCC(Oc2ccc(-c3ccc4nccn4c3Cl)cc2)CC1 [Example 294, {4-[4-(5-Chloroimidazo[1,2-a]pyridin-6-yl)-phenoxy]-piperidin-1-yl}-(R)-tetrahydrofuran-2-yl-methanone]
23 | 1 to 99 nM | O=C([C@H]1CCCO1)N1CCC(Oc2ccc(-c3ccc4nccn4c3Cl)cc2)CC1 [Example 295, {4-[4-(5-Chloroimidazo[1,2-a]pyridin-6-yl)-phenoxy]-piperidin-1-yl}-(R)-tetrahydrofuran-2-yl-methanone]
24 | 100 to 999 nM | CCC(=O)N1CCC(Oc2ccc(-c3ccc4nccn4c3Cl)cc2)CC1 [Example 296, 1-{4-[4-(5-Chloroimidazo[1,2-a]pyridin-6-yl)-phenoxy]-piperidin-1-yl}-propan-1-one]
25 | 100 to 999 nM | O=C(C1CC1)N1CCC(Oc2ccc(-c3ccc4nccn4c3Cl)cc2)CC1 [Example 297, {4-[4-(5-Chloroimidazo[1,2-a]pyridin-6-yl)-phenoxy]-piperidin-1-yl}-cyclopropylmethanone]
26 | 1 to 99 nM | O=C([C@H]1CCCO1)N1CCC(Oc2ccc(-c3ccc4cncn4c3)cc2)CC1 [Example 298, [4-(4-Imidazo[1,5-a]pyridin-6-yl-phenoxy)-piperidin-1-yl]-(R)-tetrahydro-furan-2-yl-methanone]
27 | 1000 to 10000 nM | Cc1c(-c2ccc(OC3CCN(C(=O)C4(CO)CC4)CC3)cc2)ccc2nccn12 [Example 304, (1-Hydroxymethylcyclopropyl)-{4-[4-(5-methyl-imidazo[1,2-a]pyridin-6-yl)-phenoxy]-piperidin-1-yl}-methanone]
28 | 100 to 999 nM | Cc1c(-c2ccc(OC3CCN(C(=O)C4(N)CC4)CC3)cc2)ccc2nccn12 [Example 305, (1-Aminocyclopropyl)-{4-[4-(5-methyl-imidazo[1,2-a]pyridin-6-yl)-phenoxy]-piperidin-1-yl}-methanone]
29 | 100 to 999 nM | O=C([C@H]1CCCO1)N1CCC(Oc2ccc(-c3ccn4cnnc4c3)cc2)CC1 [Example 307, (R)-Tetrahydrofuran-2-yl-[4-(4-[1,2,4]triazolo[4,3-a]pyridin-7-yl-phenoxy)-piperidin-1-yl]-methanone]
30 | 1 to 99 nM | Cc1c(-c2ccc(OC3CCN(C(=O)C4(O)CC4)CC3)cc2)ccc2nccn12 [Example 309, (1-Hydroxycyclopropyl)-{4-[4-(5-methyl-imidazo[1,2-a]pyridin-6-yl)-phenoxy]-piperidin-1-yl}-methanone]
31 | 1000 to 10000 nM | Cc1c(-c2ccc(OC3CCN(C(=O)C(C)(C)O)CC3)cc2)ccc2nccn12 [Example 310, 2-Hydroxy-2-methyl-1-{4-[4-(5-methyl-imidazo[1,2-a]pyridin-6-yl)-phenoxy]-piperidin-1-yl}-propan-1-one]
32 | 1 to 99 nM | Cc1c(-c2ccc(OC3CCN(C(=O)[C@H]4CCCO4)CC3)cc2)ccc2ncnn12 [Example 311, {4-[4-(5-Methyl-[1,2,4]triazolo[1,5-a]pyridin-6-yl)-phenoxy]-piperidin-1-yl}-(R)-tetrahydrofuran-2-yl-methanone]
33 | 1 to 99 nM | Cn1ncc2ccc(-c3ccc(OC4CCN(C(=O)[C@H]5CCCO5)CC4)cc3)cc21 [Example 317, {4-[4-(1-Methyl-1H-indazol-6-yl)-phenoxy]-piperidin-1-yl}-(R)-tetrahydrofuran-2-yl-methanone; compound with trifluoroacetic acid]
34 | 1 to 99 nM | O=C([C@H]1CCCO1)N1CCC(Oc2ccc(-c3ccc4nccn4c3)cc2)CC1 [Example 318, [4-(4-Imidazo[1,2-a]pyridin-6-yl-phenoxy)-piperidin-1-yl]-(R)-tetrahydro-furan-2-yl-methanone; compound with trifluoroacetic acid]
35 | 1 to 99 nM | Nc1c(-c2ccc(OC3CCN(C(=O)[C@H]4CCCO4)CC3)cc2)ccc2cccnc12 [Example 324, [4-[4-(8-Amino-7-quinolyl)phenoxy]-1-piperidyl]-[(2R)-tetrahydrofuran-2-yl]methanone]
36 | 1 to 99 nM | CNc1c(-c2ccc(OC3CCN(C(=O)[C@H]4CCCO4)CC3)cc2)ccc2cccnc12 [Example 325, {4-[4-(8-Methylaminoquinolin-7-yl)-phenoxy]-piperidin-1-yl}-(R)-tetrahydrofuran-2-yl-methanone]
